How the values were obtained:
[1] = test system: S6 Ribosomal Protein phosphorylation Ser235/236 in TSC1 null mouse embryo fibroblast (MEF) cells; test: Reverse protein array assay, S6 Ribosomal Protein phosphorylation Ser235/236 in TSC1 null MEF cells; assay type: cell-based; details: 1 h, pS6 ribosomal protein Ser235/236, 60 minutes incubation, read-out: p-S6 IC50
Experimental: (§1) The TSC1−/− cells were trypsinized and counted with a CASY TT cell counter (Schirfe System GmbH, Reutlingen Germany). […] The plates were incubated at 37° C. and 5% CO2 under humidified condition for at least 20 h. Working solutions were prepared freshly as serial 8 step dilutions (vol/vol) in DMSO on the day of the experiment. […] The final DMSO concentration was kept constant at 0.02%. cell culture medium containing 0.02% DMSO was used as vehicle treatment control. Post incubation, the cells were treated with the serial compound dilution. 50 μl of the compound medium mixture was added to the wells containing cells and 150 μl DMEM medium and incubated for 60 minutes (37° C., 5% CO2). After 60 minutes of incubation, the medium mixture was quickly removed by aspiration. […] 50 μl of the described lysis buffer mix was added to each well, followed by 10 minutes of incubation on ice.
The spotting of the chips follows the previous described method.

[2] = test system: PKB Ser473 phosphorylation in Rat1-myr-HA-p110 alpha cells; test: Reverse protein array assay, PKB Ser473 phosphorylation in Rat1-myr-p110 alpha cells; assay type: cell-based; details: 0.5 h, pAkt Ser473, 30 minutes compound incubation, read-out: p-PKB IC50
Experimental: as §1, with “Rat1-myr-HA-p110 alpha, beta and delta” for “TSC1−/−”, “(Schärfe” for “(Schirfe”, “Compound of formula I working” for “Working”, “0.2%.” for “0.02%.”, “0.2%” for “0.02%”, “30” for “60”
(§2) The samples were spotted onto ZeptoMARKt PWG protein microarray chips (Zeptosens, Witterswil, Switzerland) with the piezoelectric microdispense-based, non-contact Nano-Plotter 2.1 (GeSiM, Grosserkmannsdorf, Germany). Each sample was spotted at 4 different sample concentrations (d1=100%, d2=75%, d3=50%, d4=25%) by diluting the cell lysate with the corresponding volume of lysis buffer mix. After spotting the ZeptoMARK® protein microarrays, the chips are incubated for 1 hour at 37° C. […] After 20 minutes of blocking the chips are extensively rinsed with deionized water (Milli-Q quality, 18MΩ×cm) and dried in a nitrogen air flow.
(§3) After incubation, the arrays were washed twice with 200 μl CAB1 buffer. […] The fluorescence signal was assessed with exposure times of 1, 3, 5 and 10 seconds, depending on the intensity of the signal. The resulting four images taken per array are stored as 16-bit TIF files.
(§4) The fluorescence images for each array were analyzed with the ZeptoVIEW Pro 2.0 software (Zeptosens, Witterswil, Switzerland) and the relative fluorescence intensity for each signal was calculated.

[3] = molecular target: T1, mTOR (Homo sapiens, UniProt P42345); test: Biochemical assay for m-TOR by TR-FRET; details: 8 μM ATP, 400 nM GFP-4EBP1, 0.5 nM mTOR
T1 construct: purchased Invitrogen Corporation (Carlsbad/CA, USA) PV4753
Experimental: Biochemical Assay for m-TOR by TR-FRET.
Assay components are purchased from Invitrogen Corporation (Carlsbad/CA, USA): GFP-4EBP1 (Cat. No. PV4759), Tb3+-α-p4EBP1 [pThr46] Antibody (Cat. No. PV4757), proprietary TR-FRET dilution buffer (Cat. No. PV3574), mTOR protein (Cat. No. PV4753).
Then 5 μL of ATP (8 μM final concentration) and GFP-4EBP1 (400 nM final concentration) with 5 μL mTOR proteins (0.5 nM final concentration) are incubated at rt. The standard reaction buffer for the TR-FRET mTOR assay contained 50 mM HEPES pH 7.5, 10 mM MnCl2, 50 mM NaCl, 1 mM EGTA, 1 mM DTT. Reactions were stopped with 10 μL of a mixture of EDTA containing the Tb3+-α-p4EBP1-[pT46] detection Ab (0.5 nM) in TR-FRET dilution buffer (proprietary to IVG). Plates are read 15 mins later in a Synergy2 reader using an integration time of 0.2 seconds and a delay of 0.1 seconds. […] A standard compound is used as a reference compound and included in all assay plates in the form of 16 dilution points in duplicate.

[4] = test system: PKB Ser473 phosphorylation in Rat1-myr-HA-p110 delta cells; test: Reverse protein array assay, PKB Ser473 phosphorylation in Rat1-myr-p110 delta cells; assay type: cell-based; details: read-out: p-PKB IC50
Experimental: as §1, with “Rat1-myr-HA-p110 alpha, beta and delta” for “TSC1−/−”, “(Schärfe” for “(Schirfe”, “Compound of formula I working” for “Working”, “0.2%.” for “0.02%.”, “0.2%” for “0.02%”, “30” for “60”
as §2, §3, §4

[5] = test system: PKB Ser473 phosphorylation in Rat1-myr-HA-p110 beta cells; test: Reverse protein array assay, PKB Ser473 phosphorylation in Rat1-myr-p110 beta cells; assay type: cell-based; details: 0.5 h, pAkt Ser473, 30 minutes incubation, read-out: p-PKB IC50
Experimental: as §1, with “Rat1-myr-HA-p110 alpha, beta and delta” for “TSC1−/−”, “(Schärfe” for “(Schirfe”, “Compound of formula I working” for “Working”, “0.2%.” for “0.02%.”, “0.2%” for “0.02%”, “30” for “60”
as §2, §3, §4

[6] = molecular target: T2, PI3K alpha (Homo sapiens, UniProt P42336); test: PI3K alpha kinase assay (Kinase-Glo luminescence); assay type: biochemical
T2 construct: p85(iSH2) fusion partner (see partner chain) (N); His tag (C); made in house; host or cells: baculovirus; Tn5 (Trichoplusia ni) or TiniPro insect cells
Experimental: In a more preferred assay, the kinase reaction is performed in a final volume of 10 μL per well of a low volume non binding CORNING, 384 well black plate (Cat. No. #3676). The final concentrations of ATP and phosphatidyl inositol (PI) in the assay are 1 μM and 10 μg/mL respectively. The reaction is started by the addition of ATP.
The components of the assay are added per well as follows:
[…] in 90% DMSO per well, in columns 1-20, 8 concentrations (1/3 and 1/3.33 serial dilution step) in single. • Low control: […] of 90% DMSO in half the wells of columns 23-24 (0.45% in final). • High control: […] of reference compound (e.g. compound of Example 7 in WO 2006/122806) in the other half of columns 23-24 (2.5 μM in final). • Standard: […] of reference compound as just mentioned diluted as the test compounds in columns 21-22 • 20 mL ‘buffer’ are prepared per assay: • 200 μL of 1M TRIS HCl pH7.5 (10 mM in final) • 60 μL of 1M MgCl2 (3 mM in final) • 500 μL of 2M NaCl (50 mM in final) • 100 μL of 10% CHAPS (0.05% in final) • 200 μL of 100 mM DTT (1 mM in final) • 18.94 mL of nanopure water • 10 mL ‘PI’ are prepared per assay: • 200 μL of 1 mg/ml L-alpha-Phosphatidylinositol (Liver Bovine, Avanti Polar Lipids Cat. No. 840042C MW=909.12) prepared in 3% OctylGlucoside (10 μg/ml in final) • 9.8 mL of ‘buffer’ • 10 mL ‘ATP’ are prepared per assay: • 6.7 μL of 3 mM stock of ATP giving a final concentration of 1 μM per well • 10 mL of ‘buffer’ • 2.5 mL of each PI3K construct are prepared per assay in ‘PI’ with the following final concentration: • 10 nM PI3K alfa EMV B1075 • 25 nM beta EMV BV949 • 10 nM delta EMV BV1060 • 150 nM gamma EMV BV950 • 5 μL of ‘PI/PI3K’ are added per well. • 5 μl ‘ATP’ are added per well to start the reaction. • The plates are then incubated at room temperature for 60 minutes (alfa, beta, delta) or 120 minutes (gamma). • The reaction is terminated by the addition of 10 μL Kinase-Glo (Promega Cat. No. #6714). • The assay plates are read after 10 minutes in Synergy 2 reader (BioTek, Vermont USA) with an integration time of 100 milliseconds and sensitivity set to 191. • Output: The High control is around 60'000 counts and the Low control is 30'000 or lower • This luminescence assay gives a useful Z′ ratio between 0.4 and 0.7
Two different constructs, BV 1052 and BV 1075, are used to generate the PI3 Kinase a proteins for compound screening.
IC50 is determined by a four parameter curve fitting routine that comes along with “excel fit”. […] Alternatively, IC50 values are calculated using idbsXLfit model 204, which is a 4 parameter logistic model.

T1 sequence (P42345 1360-2549 limits assumed): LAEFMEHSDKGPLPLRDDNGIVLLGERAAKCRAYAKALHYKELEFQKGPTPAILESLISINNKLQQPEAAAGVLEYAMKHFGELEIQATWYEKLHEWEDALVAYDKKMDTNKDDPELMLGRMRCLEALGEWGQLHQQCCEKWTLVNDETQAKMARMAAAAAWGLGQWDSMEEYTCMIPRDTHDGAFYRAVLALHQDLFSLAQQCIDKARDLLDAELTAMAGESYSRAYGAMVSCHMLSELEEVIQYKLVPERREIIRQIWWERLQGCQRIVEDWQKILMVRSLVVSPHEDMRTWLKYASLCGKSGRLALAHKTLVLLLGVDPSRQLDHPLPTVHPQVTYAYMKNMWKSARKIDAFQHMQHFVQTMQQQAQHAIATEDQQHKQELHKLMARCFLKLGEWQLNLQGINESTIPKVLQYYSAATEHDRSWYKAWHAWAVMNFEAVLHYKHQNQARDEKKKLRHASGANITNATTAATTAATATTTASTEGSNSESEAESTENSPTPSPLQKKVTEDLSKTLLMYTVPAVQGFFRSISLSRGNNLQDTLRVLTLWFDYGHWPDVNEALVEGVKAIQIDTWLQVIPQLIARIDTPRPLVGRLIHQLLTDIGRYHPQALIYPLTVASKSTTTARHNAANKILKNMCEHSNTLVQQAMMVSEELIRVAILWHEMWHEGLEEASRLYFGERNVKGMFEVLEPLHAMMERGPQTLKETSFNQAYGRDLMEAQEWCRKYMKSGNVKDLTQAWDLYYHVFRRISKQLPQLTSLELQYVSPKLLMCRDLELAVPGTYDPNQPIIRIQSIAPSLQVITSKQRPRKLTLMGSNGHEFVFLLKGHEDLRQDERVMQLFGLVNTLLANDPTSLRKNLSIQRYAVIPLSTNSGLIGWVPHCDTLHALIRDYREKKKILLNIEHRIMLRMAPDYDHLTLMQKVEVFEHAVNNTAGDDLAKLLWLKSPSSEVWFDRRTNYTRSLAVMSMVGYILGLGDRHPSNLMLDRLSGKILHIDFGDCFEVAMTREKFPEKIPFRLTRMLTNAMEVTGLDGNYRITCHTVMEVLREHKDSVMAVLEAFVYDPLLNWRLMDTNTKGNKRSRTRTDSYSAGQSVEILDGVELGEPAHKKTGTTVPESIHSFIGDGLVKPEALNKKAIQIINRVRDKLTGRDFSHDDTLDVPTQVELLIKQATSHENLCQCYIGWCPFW
T2 sequence (P42336 with tags, fused parts or gaps limits assumed): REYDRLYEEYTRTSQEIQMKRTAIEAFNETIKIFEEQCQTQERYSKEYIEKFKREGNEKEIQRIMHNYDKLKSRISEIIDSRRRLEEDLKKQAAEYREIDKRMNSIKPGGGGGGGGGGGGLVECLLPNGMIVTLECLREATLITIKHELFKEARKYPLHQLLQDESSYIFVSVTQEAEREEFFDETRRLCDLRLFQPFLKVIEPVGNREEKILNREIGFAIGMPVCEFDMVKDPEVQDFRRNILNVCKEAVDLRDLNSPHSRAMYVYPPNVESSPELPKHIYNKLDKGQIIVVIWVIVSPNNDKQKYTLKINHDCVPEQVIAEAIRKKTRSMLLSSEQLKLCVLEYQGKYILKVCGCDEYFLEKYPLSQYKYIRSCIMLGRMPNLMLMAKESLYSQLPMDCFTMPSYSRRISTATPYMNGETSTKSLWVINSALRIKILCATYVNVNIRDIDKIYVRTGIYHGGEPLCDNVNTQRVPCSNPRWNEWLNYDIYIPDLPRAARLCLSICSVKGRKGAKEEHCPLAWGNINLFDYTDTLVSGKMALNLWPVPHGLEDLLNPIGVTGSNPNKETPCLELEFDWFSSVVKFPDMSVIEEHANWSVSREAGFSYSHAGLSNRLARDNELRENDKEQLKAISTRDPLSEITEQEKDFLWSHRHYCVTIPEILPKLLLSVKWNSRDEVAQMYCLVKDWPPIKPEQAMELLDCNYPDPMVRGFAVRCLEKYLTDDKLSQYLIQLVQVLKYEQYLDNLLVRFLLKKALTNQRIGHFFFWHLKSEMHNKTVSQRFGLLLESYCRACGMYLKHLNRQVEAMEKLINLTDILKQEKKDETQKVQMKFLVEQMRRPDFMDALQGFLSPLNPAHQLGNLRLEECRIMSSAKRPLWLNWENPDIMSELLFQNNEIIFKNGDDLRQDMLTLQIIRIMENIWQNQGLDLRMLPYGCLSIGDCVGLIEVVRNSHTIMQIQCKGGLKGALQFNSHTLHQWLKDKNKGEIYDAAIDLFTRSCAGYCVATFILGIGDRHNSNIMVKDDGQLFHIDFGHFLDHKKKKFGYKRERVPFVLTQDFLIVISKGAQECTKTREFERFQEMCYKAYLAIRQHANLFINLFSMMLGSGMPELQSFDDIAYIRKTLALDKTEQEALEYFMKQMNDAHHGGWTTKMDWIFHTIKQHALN

IC50 [2] [nM]	IC50 [3] [nM]	IC50 [4] [nM]	IC50 [5] [nM]	IC50 [6] [nM]	Structure (SMILES)	IC50 [1] [nM]
8	6	15	9		CCn1cc(-n2c(=O)n(C)c3cnc4ccc(-c5ccc(-n6cccn6)cc5)cc4c32)c(C)n1 [Example 51.3, 1-(1-Ethyl-3-methyl-1H-pyrazol-4-yl)-3-methyl-8-(4-pyrazol-1-yl-phenyl)-1,3-dihydro-imidazo[4,5-c]quinolin-2-one]	2
12	27	15	12	61	CCN(C)C(=O)Cn1cc(-n2c(=O)n(C)c3cnc4ccc(-c5ccc(-n6cccn6)cc5)cc4c32)c(C)n1 [Example 51.6, N-Ethyl-N-methyl-2-{3-methyl-4-[3-methyl-2-oxo-8-(4-pyrazol-1-yl-phenyl)-2,3-dihydro-imidazo[4,5-c]quinolin-1-yl]pyrazol-1-yl}-acetamide]	< 0.5
13	13	5	13		CNc1ncc(-c2ccc3ncc4c(c3c2)n(-c2cn(C)nc2C)c(=O)n4C)cn1 [Example 80.1, 1-(1,3-Dimethyl-1H-pyrazol-4-yl)-3-methyl-8-(2-methylamino-pyrimidin-5-yl)-1,3-dihydro-imidazo[4,5-c]quinolin-2-one]	3
34	665	112	55		CCNc1cc(-c2ccc3ncc4c(c3c2)n(-c2c(C)noc2C)c(=O)n4C)cnc1Cl [Example 153.3, 8-(6-Chloro-5-ethylamino-pyridin-3-yl)-1-(3,5-dimethyl-isoxazol-4-yl)-3-methyl-1,3-dihydro-imidazo[4,5-c]quinolin-2-one]	36
20	8	21	23		COCc1ncc(-c2ccc3ncc4c(c3c2)n(-c2cn(C)nc2Cl)c(=O)n4C)cc1OC [Example 195.4, 1-(3-Chloro-1-methyl-1H-pyrazol-4-yl)-8-(5-methoxy-6-methoxymethyl-pyridin-3-yl)-3-methyl-1,3-dihydro-imidazo[4,5-c]quinolin-2-one]	2
10	4	56	57		CCC(O)(CC)c1cncc(-c2ccc3ncc4c(c3c2)n(-c2cn(C)nc2C)c(=O)n4C)c1 [Example 216, 1-(1,3-Dimethyl-1H-pyrazol-4-yl)-8-[5-(1-ethyl-1-hydroxy-propyl)-pyridin-3-yl]-3-methyl-1,3-dihydro-imidazo[4,5-c]quinolin-2-one]	< 0.5
175	28	636	240	163	Cc1nn(CC(=O)N2CCOCC2)cc1-n1c(=O)n(C)c2cnc3ccc(-c4cnc(N5CCCC5)nc4)cc3c21 [Example 247.3, 3-Methyl-1-[3-methyl-1-(2-morpholin-4-yl-2-oxo-ethyl)-1H-pyrazol-4-yl]-8-(2-pyrrolidin-1-yl-pyrimidin-5-yl)-1,3-dihydro-imidazo[4,5-c]quinolin-2-one]	35
44	34	106	41		Cc1nn(CC(=O)N2CCCC2)cc1-n1c(=O)n(C)c2cnc3ccc(-c4cnc(N5CCCC5)nc4)cc3c21 [Example 247.4, 3-Methyl-1-[3-methyl-1-(2-oxo-2-pyrrolidin-1-yl-ethyl)-1H-pyrazol-4-yl)-8-(2-pyrrolidin-1-yl-pyrimidin-5-yl)-1,3-dihydro-imidazo[4,5-c]quinolin-2-one]	4
